Results published in patent publication US20200345746A1, “Oxazine Derivative for Use in the Prevention of Alzheimer's Disease in at Risk Patents” (Novartis AG, priority 2016, published 2020).

Assays:
[1] = First-in-human study: safety and tolerability; assay type: in vivo; conditions: healthy elderly subjects
Source text: The purpose of this study was to determine the single and multiple maximum tolerated dose of Compound 1 and to assess the pharmacokinetic/pharmacodynamic (PK/PD) relationship using Aβ in CSF as primary PD biomarker.

[2] = Drug-drug interaction study: PK of Compound 1 with the strong CYP3A4 inducer rifampicin; assay type: in vivo, human; conditions: healthy volunteers, with rifampicin 600 mg q.d. vs Compound 1 alone
Aβ40 = assay: Triton TX-100 soluble Aβ40 in APP23 mouse brain; assay type: in vivo; conditions: APP23 mice
Procedure: Frozen mouse forebrains were weighed and homogenized in 9 volumes (w/v) of ice-cold TBS-Complete (20 mM Tris-HCl pH 7.4, 137 mM NaCl, 1× Complete [Protease Inhibitor Cocktail Tablets: 1 836 145, Roche Diagnostics GmbH, Penzberg, Germany]) by sonication (90% duty cycle, output control 5, 40-55 pulses, [Sonifier 450, Branson]). After homogenization several 50 μl aliquots were prepared for analysis and were stored at −80° C.
Human Aβ40 and 42 in mice was determined with the Meso Scale Discovery (MSD) 96-well MULTI-ARRAY human/rodent (6E10) Aβ40/42 Assay (Meso Scale Discovery, Rockville, Md., USA). The assay was performed according to the manufacturer's instructions except for the calibration curve and the sample preparations. TritonX-100 (TX-100) soluble Aβ40 and 42 was extracted from forebrain with 1% TX-100 using a 50 μl aliquot of each 1:10 forebrain homogenate, mixed with 50 μl 2% TX-100 in TBS complete (20 mM Tris-HCl pH 7.4, 137 mM NaCl, 1× Complete [Protease Inhibitor Cocktail Tablets: 1 836 145, Roche Diagnostics GmbH, Penzberg Germany]) to reach a final concentration of 1% TX-100 and a 1:20 forebrain dilution. The samples were incubated for 15 min on ice and vortexed every 5 min. The samples were ultra-centrifuged (100000×g, 4° C., 15 min) and 50 μl of the clear supernatants were transferred to fresh tubes. The supernatants were further diluted 1:5 in 3% Blocker A solution (from kit) to a final forebrain dilution of 1:100 and applied to the plate.
The calibration curve was prepared in a corresponding dilution of 1% Blocker A solution spiked with synthetic Aβ1-40 peptide (1.56-100 pg/ml) except for non-transgenic mouse brain samples: In this case, the calibration curve was prepared in a correspondingly diluted APP knockout mouse forebrain spiked with synthetic Aβ1-40 peptide (1.56-100 pg/ml). For all samples and standards 25 μl were applied per well. For each determination duplicate wells were done. The mean values from the duplicate wells were used for calculations. The relative units for samples and standards were imported into SOFTmax PRO 4.0 for calculation of standard curves and quantification of samples.
Brain homogenates were extracted with 1% Triton X-100 in buffer and the resulting supernatant was considered to represent soluble forms of APP metabolites. In addition to Aβ40 and 42, we determined the N-terminal APP fragments sAPPα (direct cleavage product of α-secretase) and sAPPβ (Swe) (direct product of BACE1 cleavage). […] Since no change in the APP expression and Aβ generation is known to happen during this age, it is assumed that the increased values in the vehicle group (18-20 mo old) arise from “leakage” out of the Aβ deposits (which increase several fold, see below).

IBA1 positive microglia = IBA1 positive microglia in APP23 mice; assay type: in vivo, mouse; conditions: for Distal IBA1+ area / Non-plaque-associated IBA1+ area* / Plaque-associated IBA1+ area / Proximal IBA1+ area / Total IBA1+ area: normalized by total area, mean + SEM
Procedure: Amyloid plaques were stained using the same antibody and the microglia cells were detected using a rabbit anti-IBA1 antibody (reference 019-19741) from Wako Chemicals GmbH (Neuss, Germany) and diluted at 1/200 in antibody diluent. The staining protocol was exactly similar to the protocol for amyloid-beta plaques and astrocytes. The slides were scanned with the same settings.
For the beta-amyloid plaque and neuroinflammation analysis, the following sequence of steps was performed: • Slides were scanned with Hamamatsu Nanozoomer at 40× magnification. For each fluorescence labelling (DAPI, FITC and TRITC), a separate image was created • Manually outline ROIs (regions of interest) for defining cortex in brain sections for Aβ plaque assessment on the green FITC channel image, then use the resulting outline also for the other two channel images (copy resulting xml files) • Run the in-house developed ImageScope (V12.1.0.5029, Aperio Inc., USA) plug-in for creation and export of *.tif image tiles (at 10× magnification) for each of the 3 fluorescence channels
Image Batch Processing: • Obtain the combined true color image (DAPI, FITC, TRITC) for each section through accessing each individual fluorescence channel image • Segmentation of valid sample (within outlined ROI) from black unstained background • Apply adaptive thresholding technique for segmentation of objects in green channel image
(FITC-labeled Aβ plaques) • Separation of touching objects for correct subsequent individual object analysis after elimination of too small debris showing signal in the green (FITC) channel • Segmentation of TRITC-labeled objects in red channel (specific for GFAP or Iba1 staining indicating astrocytes or microglia) through morphological tophat transformation and thresholding • Feature based object classification
Computation of several morphometric and densitometric features for valid plaques • Number of plaques • “Specific optical density” which has been described to reflect the amount of protein (antigen) concentration, based on measuring and using the staining intensity of an appropriate antibody in a non-linear way (Rahier et al., 1989; Ruifrok et al., 2001) • assessment of “plaque-associated GFAP or Iba1” based on the ratio of TRITC+ signal vs plaque area, “proximal GFAP or Iba1” based on ratio of TRITC+ signal within dilation ring around plaque

C[C@@]1(c2nc(NC(=O)c3ncc(C(F)(F)F)cc3Cl)ccc2F)CO[C@@](C)(C(F)(F)F)C(N)=N1 [Compound 1, N-(6-((3R,6R)-5-amino-3,6-dimethyl-6-(trifluoromethyl)-3,6-dihydro-2H-1,4-oxazin-3-yl)-5-fluoropyridin-2-yl)-3-chloro-5-(trifluoromethyl)picolinamide]
safety and tolerability ([1]; 300 mg QD over two weeks (highest tested)): safe and tolerated
safety and tolerability ([1]; 750 mg single dose (highest tested)): safe and tolerated
decrease of mean AUC of Compound 1 [2]: 5-6 fold
decrease of mean Cmax of Compound 1 [2]: 2.5 fold
Aβ40 change vs vehicle (Triton TX-100 soluble, brain) (Aβ40; 0.03 g/kg vs vehicle): −4.6%
Aβ40 change vs vehicle (Triton TX-100 soluble, brain) (Aβ40; 0.3 g/kg vs vehicle): −43.7%
treatment effects on soluble Aβ species (brain tissue and CSF Aβ40) (Aβ40; high dose): −43.7 to −77%
treatment effects on soluble Aβ species (brain tissue and CSF Aβ40) (Aβ40; low dose): −4.6 to −20%
Distal IBA1+ area (IBA1 positive microglia; APP23, 0.03 g/kg food): 2.74 ± 0.42
Non-plaque-associated IBA1+ area* (IBA1 positive microglia; APP23, 0.03 g/kg food): 3.98 ± 0.54
Plaque-associated IBA1+ area (IBA1 positive microglia; APP23, 0.03 g/kg food): 1.79 ± 0.51
Proximal IBA1+ area (IBA1 positive microglia; APP23, 0.03 g/kg food): 1.23 ± 0.22
Total IBA1+ area (IBA1 positive microglia; APP23, 0.03 g/kg food): 5.76 ± 0.83
Distal IBA1+ area, change vs vehicle (IBA1 positive microglia; APP23, 0.03 g/kg vs vehicle): −28.9%
Non-plaque-associated IBA1+ area*, change vs vehicle (IBA1 positive microglia; APP23, 0.03 g/kg vs vehicle): −39.2%
Plaque-associated IBA1+ area, change vs vehicle (IBA1 positive microglia; APP23, 0.03 g/kg vs vehicle): −40.5%
Proximal IBA1+ area, change vs vehicle (IBA1 positive microglia; APP23, 0.03 g/kg vs vehicle): −47.4%
Total IBA1+ area, change vs vehicle (IBA1 positive microglia; APP23, 0.03 g/kg vs vehicle): −37.4%
Distal IBA1+ area (IBA1 positive microglia; APP23, 0.3 g/kg food): 5.05 ± 0.98
Non-plaque-associated IBA1+ area* (IBA1 positive microglia; APP23, 0.3 g/kg food): 5.70 ± 1.00
Plaque-associated IBA1+ area (IBA1 positive microglia; APP23, 0.3 g/kg food): 0.88 ± 0.19
Proximal IBA1+ area (IBA1 positive microglia; APP23, 0.3 g/kg food): 0.65 ± 0.05
Total IBA1+ area (IBA1 positive microglia; APP23, 0.3 g/kg food): 6.31 ± 0.92
Distal IBA1+ area, change vs vehicle (IBA1 positive microglia; APP23, 0.3 g/kg vs vehicle): +30.7%
Non-plaque-associated IBA1+ area*, change vs vehicle (IBA1 positive microglia; APP23, 0.3 g/kg vs vehicle): −8.2%
Plaque-associated IBA1+ area, change vs vehicle (IBA1 positive microglia; APP23, 0.3 g/kg vs vehicle): −70.6%
Proximal IBA1+ area, change vs vehicle (IBA1 positive microglia; APP23, 0.3 g/kg vs vehicle): −72.2%
Total IBA1+ area, change vs vehicle (IBA1 positive microglia; APP23, 0.3 g/kg vs vehicle): −28.5%
